Consider 28 compounds from US5116855A, “Rhodanine derivatives and pharmaceutical compositions” (Nisshin Flour Milling Co., Ltd., priority 1989, dated 1992).

This experiment deals with T1, aldose reductase (Rattus norvegicus, UniProt P07943).
T1 construct: the lenses were excised and homogenized in cold distilled water; from tissue; host or cells: lens of male SD rats, homogenate supernatant (crude enzyme)
The experiment is described as follows: Inhibitory activity against aldose reductase (crude enzyme from rat lenses, NADPH oxidation at 340 nm, D,L-glyceraldehyde substrate). In kind it is biochemical. The conditions noted are these: aldose reductase from SD rat lenses, pH 6.2, 30° C., read-out: Percentage of inhibition (%); for inhibition at 10 µM: pH 6.2, 10^-5 M; for inhibition at 1 µM: pH 6.2, 10^-6 M. On the procedure: The compounds of the present invention were evaluated for the inhibitory activity against aldose reductase according to the following assay procedure.
Enzyme activity was assayed according to the modification [Biochemical Pharmacology, 25, 2505 (1976)] of the method described in J. Biol. Chem., 240, 877-882 (1965).
SD strain male rats were sacrificed by decapitation, the lenses were excised and homogenized in cold distilled water. The homogenate was then centrifuged and the supernatant was used as the crude aldose reductase solution.
Separately, a 0.1 M sodium phosphate buffer (pH 6.2) containing 0.4 M ammonium sulfate was prepared at 30° C. In this buffer were dissolved the present compound, the crude aldose reductase solution and nicotinamide-adenine dinucleotide phosphate, reduced form (NADPH). The mixture was preincubated at 30° C. for 3 minutes and the reaction was initiated by addition of D,L-glyceraldehyde. In this case, the concentration of the present compound dissolved was 10^-5 M and 10^-6 M, respectively. The total amount of the assay mixture was 1.0 ml, containing 0.16 mM of NADPH, 10 mM of D,L-glyceraldehyde and 0.010-0.016 units of aldose reductase.
The inhibitory activity of the present compounds against aldose reductase was measured using each 1.0 ml of the reaction mixture containing the present compound in the above concentration. In this measurement, the rate of NADPH oxidation was followed by recording the decrease in absorbance at 340 nm. The inhibitory activity of the present compounds against aldose reductase as measured was expressed in percentage of inhibition (%) as a relative activity based on a control value.

A word on the inhibition: it is the relative decrease from the control value, in per cent.

As to `CCOC(=O)CCC(C=Cc1ccc(OC)c(OC)c1)=C1SC(=S)NC1=O` [Example 2, Ethyl 6-(3,4-dimethoxyphenyl)-4-(4-oxo-2-thioxo-5-thiazolidinylidene)-5-hexenoate], the inhibition at 10 µM came out at 72% and the inhibition at 1 µM turned out to be 48.6%.
On to `CCCCCCC(C=Cc1ccc(OCc2nn[nH]n2)cc1)=C1SC(=S)NC1=O` [Example 4], for which the inhibition at 10 µM came out at 62.6% and the inhibition at 1 µM was 29.9%.
On to `CCOC(=O)CCC(C=Cc1ccc(C#N)cc1)=C1SC(=S)NC1=O` [Example 7, Ethyl 6-(4-cyanophenyl)-4-(4-oxo-2-thioxo-5-thiazolidinylidene)-5-hexenoate], for which the inhibition at 10 µM amounted to 50.9%.
As to `CCOC(=O)CCC(C=Cc1ccc(C(=O)OC)cc1)=C1SC(=S)NC1=O` [Example 12, Ethyl 6-(4-methoxycarbonylphenyl)-4-(4-oxo-2-thioxo-5-thiazolidinylidene)-5-hexenoate], the inhibition at 10 µM amounted to 42.8%.
For `COC(=O)c1ccccc1NC(=O)C(C)=C1SC(=S)NC1=O` [Example 18, Methyl N-[2-(4-oxo-2-thioxo-5-thiazolidinylidene)propionyl]anthranilate], the inhibition at 10 µM came to 84% and the inhibition at 1 µM is 62.6%.
As for `COC(=O)c1ccccc1NC(=O)CCCC(C)=C1SC(=S)NC1=O` [Example 19, Methyl N-[5-(4-oxo-2-thioxo-5-thiazolidinylidene)hexanoyl]anthranilate], the inhibition at 10 µM turned out to be 34.6%.
Consider `O=C1NC(=S)SC1=Cc1ccc(OCCCCc2nnn[nH]2)cc1` [Example 20, 5-{4-[4-(1H-Tetrazol-5-yl)butyloxy]benzylidene}-4-oxo-2-thioxothiazolidine], for which the inhibition at 10 µM worked out at 84% and the inhibition at 1 µM came to 43.9%.
For `O=C(O)CCC(C=Cc1ccc(C(=O)O)cc1)=C1SC(=S)NC1=O` [Example 29, 6-(4-Carboxyphenyl)-4-(4-oxo-2-thioxo-5-thiazolidinylidene)-5-hexenoic acid], in that order: 82.8% and 38.5%.
In the case of `O=C(O)CCC(C=Cc1cccs1)=C1SC(=S)NC1=O` [Example 30, 6-(2-Thienyl)-4-(4-oxo-2-thioxo-5-thiazolidinylidene)-5-hexenoic acid], the inhibition at 10 µM turned out to be 73%.
Take `Cc1ccsc1C=CC(CCC(=O)O)=C1SC(=S)NC1=O` [Example 31, 6-(3-Methyl-2-thienyl)-4-(4-oxo-2-thioxo-5-thiazolidinylidene)-5-hexenoic acid]: the inhibition at 10 µM was determined as 83.6% and the inhibition at 1 µM was 39.8%.
As to `COc1cc(C=CC(C)=C2SC(=S)NC2=O)ccc1OCC(=O)O` [Example 32, 4-[3-(4-Oxo-2-thioxo-5-thiazolidinylidene)-1-butenyl]-2-methoxyphenoxyacetic acid], the inhibition at 10 µM was 92.5% and the inhibition at 1 µM amounted to 84.7%.
`CCC(CCc1cccn1CCC(=O)O)=C1SC(=S)NC1=O` [Example 34, 3-{2-[3-(4-Oxo-2-thioxo-5-thiazolidinylidene)pentyl]pyrrol-1-yl}propionic acid]: the inhibition at 10 µM stood at 80.8% and the inhibition at 1 µM was determined as 35.5%.
With `O=C(O)CCC(C=Cc1ccco1)=C1SC(=S)NC1=O` [Example 35, 6-(2-Furyl)-4-(4-oxo-2-thioxo-5-thiazolidinylidene)-5-hexenoic acid], the inhibition at 10 µM amounted to 72.3%.
On to `CC(C(=O)Nc1ccccc1C(=O)O)=C1SC(=S)NC1=O` [Example 36, N-[2-(4-Oxo-2-thioxo-5-thiazolidinylidene)propionyl]anthranilic acid], for which the inhibition at 10 µM stood at 94% and the inhibition at 1 µM is 80%.
As for `CC(CCCC(=O)Nc1ccccc1C(=O)O)=C1SC(=S)NC1=O` [Example 37, N-[5-(4-Oxo-2-thioxo-5-thiazolidinylidene)hexanoyl]anthranilic acid], the inhibition at 10 µM came to 56.4%.
Take `CCOC(=O)COc1ccccc1C=CC(C)=C1SC(=S)NC1=O` [Example 39, Ethyl 2-[3-(4-oxo-2-thioxo-5-thiazolinylidene)-1-butenyl]phenoxacetate]: the inhibition at 10 µM amounted to 62.6% and the inhibition at 1 µM stood at 50.9%.
Regarding `COC(=O)COc1ccccc1C=CC(C)=C1SC(=S)NC1=O` [Example 40, Methyl 2-[3-(4-oxo-2-thioxo-5-thiazolinylidene)-1-butenyl]phenoxyacetate], the inhibition at 10 µM is 38.8%.
As to `COC(=O)COc1ccccc1C=C(C)C=C1SC(=S)NC1=O` [Example 41, Methyl 2-[2-methyl-3-(4-oxo-2-thioxo-5-thiazolinylidene)-1-propenyl]phenoxyacetate], the inhibition at 10 µM was determined as 86.2% and the inhibition at 1 µM is 48.5%.
Take `COC(=O)COc1ccc(C=CC(C)=C2SC(=S)NC2=O)cc1OC` [Example 42, Methyl 2-methoxy-4-[3-(4-oxo-2-thioxo-5-thiazolinylidene)-1-butenyl]phenoxyacetate]: the inhibition at 10 µM came out at 54.2% and the inhibition at 1 µM was found to be 33.8%.
With `CCOC(=O)COc1ccc(CCC(C)=C2SC(=S)NC2=O)cc1OC` [Example 43, Ethyl 2-methoxy-4-[3-(4-oxo-2-thioxo-5-thiazolinylidene)butyl]phenoxyacetate], the inhibition at 10 µM was 48.9% and the inhibition at 1 µM was determined as 26.1%.
As for `CCOc1cc(C=CC(C)=C2SC(=S)NC2=O)ccc1OCC(=O)OC` [Example 44, Methyl 2-ethoxy-4-[3-(4-oxo-2-thioxo-5-thiazolinylidene)-1-butenyl]phenoxyacetate], the inhibition at 10 µM was 39.1%.
On to `CCOc1cc(CCC(C)=C2SC(=S)NC2=O)ccc1OCC(=O)OC` [Example 45, Methyl 2-ethoxy-4-[3-(4-oxo-2-thioxo-5-thiazolinylidene)butyl]phenoxyacetate], for which the inhibition at 10 µM is 48.9%.
Still for that read-out and setting: the figure for `COC(=O)COc1c(C=CC(C)=C2SC(=S)NC2=O)cccc1OC` [Example 46, Methyl 2-methoxy-6-(3-(4-oxo-2-thioxo-5-thiazolinylidene)-1-butenyl]phenoxyacetate] is 34.3%.
With `COC(=O)COc1c(OC)cc(C=CC(C)=C2SC(=S)NC2=O)cc1OC` [Example 48, Methyl 2,6-dimethoxy-4-[3-(4-oxo-2-thioxo-5-thiazolinylidene)-1-butenyl]phenoxyacetate], the inhibition at 10 µM came out at 69.1%.
Consider `COC(=O)COc1ccc(Cl)cc1C=CC(C)=C1SC(=S)NC1=O` [Example 49, Methyl 4-chloro-2-[3-(4-oxo-2-thioxo-5-thiazolinylidene)-1-butenyl]phenoxyacetate], for which the inhibition at 10 µM was 80% and the inhibition at 1 µM was 30.5%.
As for `CC(C=Cc1cc(Cl)ccc1OCC(=O)OCc1ccccc1)=C1SC(=S)NC1=O` [Example 50, Benzyl 4-chloro-2-[3-(4-oxo-2-thioxo-5-thiazolinylidene)-1-butenyl]phenoxyacetate], the inhibition at 10 µM was found to be 48%.
Turning to `CCOC(=O)COc1ccc(C=C(C)C=C2SC(=S)NC2=O)cc1OC` [Example 53, Ethyl 2-methoxy-4-[2-methyl-3-(4-oxo-2-thioxo-5-thiazolinylidene)-1-propenyl]phenoxyacetate], the inhibition at 10 µM is 71.3% and the inhibition at 1 µM amounted to 32%.
For the compound `COC(=O)COc1ccc(Br)cc1C=CC(C)=C1SC(=S)NC1=O` [Example 56, Methyl 4-bromo-2-[3-(4-oxo-2-thioxo-5-thiazolinylidene)-1-butenyl]phenoxyacetate], the inhibition at 10 µM amounted to 63.9% and the inhibition at 1 µM is 27.1%.
